For orientation: IC50 means the concentration needed to halve the response being measured.

For this test, the target named is T1, recombinant human DPP-1 (Cathepsin C) (Homo sapiens, UniProt P53634).
T1 construct: made in house
In words: DPP-1 Inhibition Assay (In Vitro), fluorogenic substrate GR-AMC. As to conditions: 0.15 nM DPP-1, 10 uM GR-AMC, pH 7.0, room temperature; average value where tested multiple times. The test is classed as biochemical. On the procedure: Test compounds were assessed for DPP-1 (Cathepsin C) inhibitory activity using a fluorogenic substrate, GR-AMC (Glycine-Arginine-amino-4-methylcoumarin, Bachem, I-1215). The amount of amino-methylcoumarin released is proportional to the DPP-1 activity, and the reaction is monitored kinetically with a Molecular Devices plate reader using black 96-well plates.
All compounds were tested under room temperature conditions. The assay buffer consisted of 50 mM HEPES, pH 7.0, 100 mM NaCl, 2 mM glutathione (GSH), and 0.002% TWEEN 20. GSH and TWEEN 20 were added to the buffer fresh daily. Just prior to use, an in-house preparation of recombinant human DPP-1 (240 μM stock, MW 49.6 kD) was diluted 600-fold in assay buffer containing fresh 2 mM dithiothreitol (DTT) to activate the enzyme, then diluted into assay buffer (without DTT) 133-fold for a DPP-1 working solution of 3 nM. Test compounds were diluted in DMSO for 20× their final assay concentrations.
Additions to a 96-well black Costar 3915 plates were as follows: 90 μL of 11 μM GR-AMC, 5 μL test compound (followed by mixing), and 5 μL 3 nM DPP-1 to start the reaction. Fluorescent reactions were monitored kinetically at 360 nm excitation, 440 nm emission on a Molecular Devices Spectramax XPS reader. The Softmax Pro software of the reader determined the initial velocity of the selected data (the first 3-5 minutes of the reaction), and the best linear regression fit of the initial kinetic data. Final assay conditions were 0.15 nM DPP-1, 10 uM GR-AMC, 50 mM HEPES, pH 7.0, 100 mM NaCl, 2 mM GSH, 0.002% TWEEN 20, 1 uM DTT, 5.0% DMSO. Initial velocity rates were plotted vs. test compound concentration by use of a four-parameter logistics equation (nonlinear regression, sigmoidal dose-response (variable slope), with fixed Hill (1.0) using GraphPad Prism® software for determination of DPP-1 IC50. Within-run assay coefficient of variation (CV) was generally <10%; between-run CV <20%.
Representative compounds of the present invention were tested according to the procedure as described above, with results as listed in Table 5, below.

T1 sequence (P53634 25-463): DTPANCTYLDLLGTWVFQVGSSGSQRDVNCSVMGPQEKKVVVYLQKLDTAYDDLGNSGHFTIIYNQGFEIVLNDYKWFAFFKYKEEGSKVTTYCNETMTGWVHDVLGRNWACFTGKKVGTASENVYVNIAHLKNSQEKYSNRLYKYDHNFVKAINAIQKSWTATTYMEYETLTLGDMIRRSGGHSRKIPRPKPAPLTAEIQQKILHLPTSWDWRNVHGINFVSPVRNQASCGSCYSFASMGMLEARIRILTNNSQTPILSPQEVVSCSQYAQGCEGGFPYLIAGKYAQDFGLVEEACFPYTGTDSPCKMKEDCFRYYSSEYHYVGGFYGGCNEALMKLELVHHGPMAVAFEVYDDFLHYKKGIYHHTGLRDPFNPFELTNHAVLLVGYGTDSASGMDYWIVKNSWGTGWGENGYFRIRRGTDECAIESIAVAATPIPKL

For `CC[C@H](N)C(=O)N1CCC(C(=O)NC2CCCCC2)(c2ccccc2)CC1` [Compound 70], the concentration for half-maximal inhibition (IC50) came to 9400 nM. To `N[C@@H](Cc1cccs1)C(=O)N1CCC(Cc2ccncc2)(C(=O)NC2CCCCC2)CC1` [Compound 71] belongs 37 nM; to `CC[C@H](N)C(=O)N1CCC(Cc2ccncc2)(C(=O)NC2CCCCC2)CC1` [Compound 72], 5000 nM. For `CSCC[C@H](N)C(=O)N1CCC(Cc2ccc(I)cc2)(C(=O)NC2CCCCC2)CC1` [Compound 73], the IC50 was found to be 250 nM. To `N[C@@H](Cc1c[nH]cn1)C(=O)N1CCC(C(=O)NC2CCCCC2)(c2ccccc2)CC1` [Compound 75] belongs 2800 nM. Next, `CC[C@H](N)C(=O)N1CCC(Cc2ccc(I)cc2)(C(=O)NC2CCCCC2)CC1` [Compound 77]: 2300 nM.

In the case of `N[C@@H](Cc1ccc(Cl)s1)C(=O)N1CCC(Cc2ccc(-c3ccccc3)cc2)(C(=O)NC2CCCCC2)CC1` [Compound 78], the IC50 stood at 5600 nM. Turning to `N[C@@H](Cc1c[nH]cn1)C(=O)N1CCC(Cc2ccc([N+](=O)[O-])cc2)(C(=O)NC2CCCCC2)CC1` [Compound 79], the concentration for half-maximal inhibition (IC50) is 620 nM. Next, `N[C@@H](Cc1cccs1)C(=O)N1CCC(Cc2ccc([N+](=O)[O-])cc2)(C(=O)NC2CCCCC2)CC1` [Compound 81]: 24 nM. Next, `N#Cc1ccccc1CC1(C(=O)NC2CCCCC2)CCN(C(=O)[C@@H](N)Cc2cccs2)CC1` [Compound 82]: 110 nM; `CC[C@H](N)C(=O)N1CCC(Cc2cccc(OC)c2)(C(=O)NC2CCCCC2)CC1` [Compound 83]: 9500 nM; `COc1cccc(CC2(C(=O)NC3CCCCC3)CCN(C(=O)[C@@H](N)Cc3cccs3)CC2)c1` [Compound 84]: 56 nM.

For `N[C@@H](Cc1cccs1)C(=O)N1CCC(C(=O)N[C@H]2CC[C@H](O)CC2)(c2ccccc2)CC1` [Compound 85], the half-inhibitory concentration (IC50) turned out to be 110 nM. With `N[C@@H](Cc1cccs1)C(=O)N1CCC(Cc2ccccc2)(C(=O)NC2CCCCC2)CC1` [Compound 86], the concentration for half-maximal inhibition (IC50) turned out to be 40 nM. On to `CS(=O)(=O)Nc1ccc(CC2(C(=O)NC3CCCCC3)CCN(C(=O)[C@@H](N)Cc3cccs3)CC2)cc1` [Compound 88], for which the IC50 came to 31 nM. On to `N[C@@H](Cc1cccs1)C(=O)N1CCC(Cc2ccc(NS(=O)(=O)C(F)(F)F)cc2)(C(=O)NC2CCCCC2)CC1` [Compound 89], for which the IC50 was determined as 150 nM. Next, `N[C@@H](Cc1cccs1)C(=O)N1CCC(C(=O)NCC2CCCCC2)(c2ccccc2)CC1` [Compound 91]: 23 nM. On to `N[C@@H](Cc1cc(Br)cs1)C(=O)N1CCC(Cc2ccc(I)cc2)(C(=O)NC2CCCCC2)CC1` [Compound 92], for which the IC50 came to 5600 nM. With `Nc1ccc(CC2(C(=O)NC3CCCCC3)CCN(C(=O)[C@@H](N)Cc3cccs3)CC2)cc1` [Compound 95], the half-inhibitory concentration (IC50) is 63 nM. For `N[C@@H](Cc1cccs1)C(=O)N1CCC(Cc2cccc(I)c2)(C(=O)NC2CCCCC2)CC1` [Compound 96], the IC50 was determined as 84 nM. As for `N[C@@H](Cc1cccs1)C(=O)N1CCC(Cc2cccc(-c3cncnc3)c2)(C(=O)NC2CCCCC2)CC1` [Compound 97], the IC50 turned out to be 39 nM. Turning to `N[C@@H](Cc1cccs1)C(=O)N1CCC(Cc2cccc(-c3ccc(O)nc3)c2)(C(=O)NC2CCCCC2)CC1` [Compound 98], the IC50 stood at 45 nM. To `N#Cc1ccc(-c2ccc(CC3(C(=O)NC4CCCCC4)CCN(C(=O)[C@@H](N)Cc4cccs4)CC3)cc2)cc1` [Compound 99] belongs 46 nM. With `N[C@@H](Cc1cccs1)C(=O)N1CCC(Cc2cccc(-c3ccc(C(F)(F)F)cc3)c2)(C(=O)NC2CCCCC2)CC1` [Compound 100], the half-inhibitory concentration (IC50) was determined as 120 nM. Next, `N[C@@H](Cc1cccs1)C(=O)N1CCC(Cc2cccc(-c3cccc(C(=O)O)c3)c2)(C(=O)NC2CCCCC2)CC1` [Compound 101]: 140 nM; `N[C@@H](Cc1cccs1)C(=O)N1CCC(Cc2cccc(-c3ccc(C(=O)O)cc3)c2)(C(=O)NC2CCCCC2)CC1` [Compound 102]: 190 nM; `N[C@@H](Cc1cccs1)C(=O)N1CCC(C(=O)NC2CCOCC2)(c2ccccc2)CC1` [Compound 103]: 310 nM.

`N[C@@H](Cc1cccs1)C(=O)N1CCC(C(=O)NCC2CCOCC2)(c2ccccc2)CC1` [Compound 104]: the IC50 was 76 nM. For `CCSCC[C@H](N)C(=O)N1CCC(Cc2ccc(-c3ccccc3)cc2)(C(=O)NCC2CCCCC2)CC1` [Compound 106], the IC50 came out at 5600 nM.

For `N[C@@H](Cc1ccccc1)C(=O)N1CCC(Cc2ccc(-c3ccccc3)cc2)(C(=O)NCC2CCCCC2)CC1` [Compound 108], the IC50 was roughly 4000 nM. Next, `COC(=O)[C@H]1CC[C@H](CNC(=O)C2(c3ccccc3)CCN(C(=O)[C@@H](N)Cc3cccs3)CC2)CC1` [Compound 110]: 170 nM. To `N[C@@H](Cc1cccs1)C(=O)N1CCC(C(=O)NC[C@H]2CC[C@H](C(=O)O)CC2)(c2ccccc2)CC1` [Compound 112] belongs 200 nM; to `N[C@@H](Cc1cccs1)C(=O)N1CCC(C(=O)NC2=NCCS2)(c2ccccc2)CC1` [Compound 114], 220 nM; to `N[C@@H](Cc1cccs1)C(=O)N1CCC(C(=O)N[C@H]2CC[C@H](C(=O)O)CC2)(c2ccccc2)CC1` [Compound 115], 200 nM. As to `N[C@@H](Cc1cccs1)C(=O)N1CCC(C(=O)N[C@H]2CC[C@H](O)CC2)(c2cc(C(F)(F)F)cc(C(F)(F)F)c2)CC1` [Compound 120], the IC50 turned out to be 230 nM. Consider `N[C@@H](Cc1cccs1)C(=O)N1CCC(Cc2ccncc2)(C(=O)NCC2CCOCC2)CC1` [Compound 121], for which the IC50 turned out to be 130 nM. To `N[C@@H](Cc1cccs1)C(=O)N1CCC(Cc2ccncc2)(C(=O)N2CCOCC2)CC1` [Compound 122] belongs 1300 nM; to `N[C@@H](Cc1cccs1)C(=O)N1CCC(Cc2ccc(-c3nnn[nH]3)cc2)(C(=O)NCC2CCCCC2)CC1` [Compound 127], 83 nM; to `Cc1ccc(C2(C(=O)NCC3CCCCC3)CCN(C(=O)[C@@H](N)Cc3cccs3)CC2)cc1` [Compound 129], 17 nM. For the compound `Cc1ccc(C2(C(=O)NCC3CCOCC3)CCN(C(=O)[C@@H](N)Cc3cccs3)CC2)cc1` [Compound 130], the concentration for half-maximal inhibition (IC50) was 41 nM.

For `CN(CC1CCCCC1)C(=O)C1(c2ccccc2)CCN(C(=O)[C@@H](N)Cc2cccs2)CC1` [Compound 134], the IC50 was determined as 16 nM. Next, `CCC[C@H](N)C(=O)N1CCC(Cc2cccnc2)(C(=O)NCC2CCCCC2)CC1` [Compound 136]: 6500 nM; `CC[C@H](N)C(=O)N1CCC(C(=O)N(C)C2CCCCC2)(c2ccccc2)CC1` [Compound 138]: 1700 nM. Next, `C[C@@H](O)[C@H](N)C(=O)N1CCC(C(=O)NCC2CCCCC2)(c2ccccc2)CC1` [Compound 139]: 2600 nM.
